In a compilation of properties of binary mixtures (doi:10.1016/j.molliq.2016.09.008):

Test: xn = mol fraction of the nth substance listed
Conditions: 298.15 K, 101 kPa

For `C[N+](=O)[O-]` + CC[NH3+].O=[N+]([O-])[O-], the electrical conductivity (x1 = 1) was 0.0031 S/m and the viscosity (x1 = 1) was 0.637 mPa·s.

`CC[NH3+].O=[N+]([O-])[O-]` + C[N+](=O)[O-] gave an electrical conductivity (x1 = 0.0034) of 0.0549 S/m, a viscosity (x1 = 0.0034) of 0.652 mPa·s and an electrical conductivity (x1 = 0.0062) of 0.0721 S/m. The viscosity (x1 = 0.0062) was 0.662 mPa·s, the electrical conductivity (x1 = 0.0112) was 0.0945 S/m and the viscosity (x1 = 0.0112) was 0.679 mPa·s. It also gave an electrical conductivity (x1 = 0.0129) of 0.1 S/m, a viscosity (x1 = 0.0129) of 0.683 mPa·s and an electrical conductivity (x2 = 0.0498) of 2.34 S/m. It also gave a viscosity (x2 = 0.0498) of 34.1 mPa·s, an electrical conductivity (x2 = 0.1048) of 2.4 S/m and a viscosity (x2 = 0.1048) of 31.5 mPa·s. The electrical conductivity (x2 = 0.2032) was 2.56 S/m, the viscosity (x2 = 0.2032) was 23.9 mPa·s and the electrical conductivity (x2 = 0.3007) was 2.7 S/m. It also gave a viscosity (x2 = 0.3007) of 20.3 mPa·s, an electrical conductivity (x2 = 0.3874) of 2.94 S/m and a viscosity (x2 = 0.3874) of 15.3 mPa·s. The electrical conductivity (x2 = 0.4983) was 2.71 S/m and the viscosity (x2 = 0.4983) was 8.52 mPa·s.
